“Also recorded” adds a separate entry of the source.
What was measured:
[1] = tested on: IFNAR1; assay: Effect of lysosome / proteasome inhibitors on LRPAP1-induced IFNAR1 reduction, HEK-293T cells; details: 4 h, MA 20 mM; for effect on LRPAP1-induced IFNAR1 reduction: bafilomycin 1 μM, MG132 40 μM, leupeptin 50 μM
[2] = tested on: LRPAP1; type: cell-based, human
[3] = tested on: LRP1; type: cell-based, human
[4] = tested on: IFNAR1; assay: IFNAR1 protein level, immunoblot, HEK-293T cells; type: cell-based, human
[5] = tested on: LRPAP1; type: cell-based, human; remark: listed apart in the source
[6] = tested on: IFNAR1; assay: IFNAR1 endocytosis, EEA1 immunofluorescence, HEK-293T cells; type: cell-based, human; details: 200 nM, 1 h
Description: Cellular expression of IFNAR1, viral protein VP1 and LRPAP1 at HEK-293T cells with and without the stimulation of EV71, the recombinant LRPAP1, and overexpression of LRPAP1 or 2A, were examined by the following protocol. Briefly, HEK-293T cells were washed twice with PBS and fixed with 4% paraformaldehyde for 20 min. Afterwards, cells were incubated with blocking buffer (10% (v/v) FBS, 1% (v/v) BSA, and 0.1% (v/v) Triton in PBS) for 2 h. Cells were then incubated with specific antibodies. […] After washing with PBST (PBS + 0.1% Tween-20) for 3 times, cells were labeled with Alexa Fluor 488 (green), or Alexa Fluor 594 (red) conjugated secondary antibody (dilution of 1:1000) (Life Technologies) for 1 h at 4 °C with shaking. After three times washing with PBST (PBS + 0.1% Tween-20), cells were followed by nuclei staining with DAPI (0.5 μg/ml) for 5 min at room temperature. Finally, cells were mounted with Prolong Gold Antifade Reagent on slides. Images were taken by Carl Zeiss LSM 880 confocal microscope using 63× oil objective and analyzed by ZEN software.

[7] = tested on: IFNAR1; assay: Flow cytometry, cell surface IFNAR1 on 4T1 cells; type: cell-based, murine; details: live 4T1 cells, 200 nM
Description: The surface IFNAR1 was monitored by flow cytometry as previous described.[60] Briefly, murine breast cancer cells (4T1) were stained with APC-conjugated IFNAR1 (Biolegend #127314, 1:100) on ice for 30 min. […] Fluorescence-activated cells were then sorted and analyzed by Beckman Coulter CytoFLEX S Flow cytometer ([…]). The result was analyzed by FlowJo (version 10.5.3).
The surface IFNAR1 was monitored by flow cytometry as previous described^63. Briefly, murine breast cancer cells (4T1) were stained with APC-conjugated IFNAR1 (Biolegend #127314, 1:100) on ice for 30 min. […] Fluorescence-activated cells were then sorted and analyzed by Beckman Coulter CytoFLEX S Flow cytometer ([…]). The result was analyzed by FlowJo (version 10.5.3).

[8] = tested on: IFNAR1; assay: IFNAR1 and LRPAP1 in membrane and cytosol fractions, HEK-293T cells; type: cell-based, human; details: 200 nM, 1 min to 10 min
Description: Then proteins were subjected to Western blotting. […] Hes1 (Abcam, ab71559).
(§1) Tissues were washed twice with PBS and made into homogenate by 2 ml grinder. Membrane proteins were separated from cytosol protein extraction by using the protocol of membrane protein extraction kit (89842, Thermo).

[9] = tested on: HCoV-OC43; assay: HCoV-OC43 infection of RD cells (viral RNA, TCID50, CPE); details: pre-treated 1 h (or siRNA 24 h), MOI 1, 72 h
[10] = tested on: extracellular domain of IFNAR1; assay: Pull-down / co-immunoprecipitation of LRPAP1 with IFNAR1; type: binding; details: Residues 1–436
Description: The interaction of LRPAP1, LRP1 and IFNAR1 was examined by immunoprecipitation using a protocol described as followed. HEK293T cells were cultured at around 90% confluence in a 100 mm tissue culture dish. Cells were washed with 10 ml of PBS and harvested in 0.5 ml of ice-cold lysis buffer ([…], pH 7.4, 1% SDS, 1% NP-40) and Protease Cocktail (Roche) and PhoSTOP (Roche). The total extract was pre-cleared with 10 μg normal rabbit IgG (Cell signaling, 2729 S) and 20 μl of protein A/G plus-agarose (Santa Cruz Biotechnology) at 4 °C on a rotor for 1 h. After gently removed protein A/G agarose beads by centrifugation at 500 rcf for 2 min, 0.2 mg of total extract was immunoprecipitated with the indicated antibodies overnight at 4 °C on a rotor. Approximately 20 μl of protein A/G plus-agarose (Santa Cruz Biotechnology) was added at 4 °C for one hour. Then, the beads were washed three times with washing buffer (lysis buffer contained 0.1% NP-40). The pellet was suspended with 40 μl PBS and 10 μl of 5× SDS-PAGE loading buffer and the samples were boiled for 10 min.
The interaction of LRPAP1, LRP1 and IFNAR1 was examined by immunoprecipitation using a protocol described as followed. HEK293T cells were cultured at around 90% confluence in a 100 mm tissue culture dish. […]

[11] = tested on: EV71; assay: EV71 entry and uncoating, HEK-293T cells; type: cell-based; details: pre-treated on ice 1 h, EV71 MOI 50, within 1 h
[12] = tested on: EV71; assay: EV71 infection of RD cells (viral RNA, titer, viral protein, CPE)
[13] = tested on: IFNAR1; assay: LRPAP1 stimulated mouse brain ex vivo, membrane IFNAR1 immunoblot; design: species or system C57BL/6 mouse; details: 200 nM, ACSF, 1 h
Description: as §1

[14] = tested on: IFNAR1; assay: IFNAR1 phosphorylation immunoblot, HEK-293T cells; type: cell-based, human; details: extracellular rLRPAP1, 1 h
[15] = tested on: IFNAR1; assay: IFNAR1 protein level, immunoblot / immunofluorescence, RD cells; type: cell-based; details: RD cells, 200 nM, 1 h
[16] = tested on: EV71; assay: EV71 infection of newborn C57BL/6 mice; type: in vivo
Description: The C57BL/6 mice were purchased and were bred in the City University of Hong Kong. All animal experiment protocols were approved by the Ethics Committee of City University of Hong Kong with the license from Department of Health, Hong Kong (18-69 in DH/SHS/8/2/5 Pt.3). The studies were performed in accordance with the approved protocol. […] The neurological status and behavior of each mouse was measured every day. On day 7, mice were sacrificed, and the intestine and blood were collected for viral testing.

Compound: CO/C1=C\C(C)=C\[C@@H](C)[C@@H](O)[C@@H](C)C/C(C)=C/C=C/[C@H](OC)[C@@H]([C@@H](C)[C@@H](O)[C@H](C)[C@@]2(O)C[C@@H](O)[C@H](C)[C@@H](C(C)C)O2)OC1=O [bafilomycin]
- effect on LRPAP1-induced IFNAR1 reduction [1]: prohibited by lysosome inhibitors

Compound: CN [methylamine]
- effect on LRPAP1-induced IFNAR1 reduction [1]: prohibited by lysosome inhibitors
- protection of IFNAR1 from degradation ([1]; ubiquitin, LRPAP1, IFNAR1 expressed): IFNAR1 was protected from degradation

Compound: SARS-CoV-2 3CL^pro: SARS-CoV-2 main protease, transfected pCMV-SARS-CoV-2-3CL
- extracellular LRPAP1 level [2]: extracellular LRPAP1 increase
- LRP1 protein level [3]: decreased protein level
- IFNAR1 level [4]: decreased IFNAR1 level; also recorded: expression of IFNAR1 decreased
- LRPAP1 expression [5]: increased LRPAP1 expression

Compound: rLRPAP1: recombinant LRPAP1 from pQTEV-LRPAP1 expressed in E. coli
- IFNAR1 endocytosis (EEA1 level) [6]: increased level of early endosome marker (EEA1)
- cell surface IFNAR1 [7]: significantly reduced cell surface IFNAR1
- IFNAR1 level in membrane / cytosol fractions [8]: IFNAR1 consistently decreased with time
- rLRPAP1 enrichment in membrane fractions [8]: gradually enriched in the membrane fractions
- HCoV-OC43 intracellular RNA level [9]: increased significantly
- HCoV-OC43 viral titer (TCID50) [9]: increased significantly
- direct binding to IFNAR1 extracellular domain (pull-down) [10]: directly bound with the extracellular domain of IFNAR1
- EV71 entry and uncoating rate [11]: promoted EV71 entry and uncoating rate within 1 h
- IFNAR1 level on rLRPAP1 treatment ([4]; 50 nM, 1 h): marginal detectable level
- IFNAR1 level on rLRPAP1 treatment ([4]; 200 nM, 1 h): undetectable level
- IFNAR1 level on rLRPAP1 treatment ([4]; within 15 min, dose-dependent): rapidly decreased within 15 min in a rLRPAP1 dose-dependent manner
- EV71 infection ([12]; RD cells, 9 h, plasmid, recombinant protein or peptide pre-treatment, viral RNA / titer): significantly promoted EV71 infection
- EV71 induced CPE ([12]; antibody added 3 h post infection (MOI 10, 6 h), rLRPAP1 200 nM pre-treatment 1 h): significantly promoted EV71 infection and EV71-induced CPE
- membrane IFNAR1 in mouse brain [13]: significantly lower
- phosphorylated IFNAR1 [14]: promoted in an extracellular rLRPAP1 dose-dependent manner
- IFNAR1 in the cell membrane (immunofluorescence) [15]: sharply decreased in the cell membrane
- survival rate ([16]; co-injected EV71 and rLRPAP1, 7 days): 75%
- mice with severe neurological deficits ([16]; co-injected EV71 and rLRPAP1, after two injections (Day 3)): 50%
- physical condition of mice ([16]; co-injected EV71 and rLRPAP1, i.p. twice per week): severe physical disharmony
- EV71 infection and disease in mice ([16]; i.p. EV71 (2*10^8 PFU) + rLRPAP1 (200 nM) twice per week): potently enhanced EV71 infection and exacerbated the disease in newborn C57BL/6 mice

— PMC10518340, “Secreted LRPAP1 binds and triggers IFNAR1 degradation to facilitate virus evasion from cellular innate immunity” (Signal Transduction and Targeted Therapy, 2023)
